Patent US7264314B2, “Adrenocorticotropic hormone analogs and related methods” (priority 2004, dated 2007)

Key:
[1] = test system: serum corticosterone in dexamethasone-suppressed mice; experiment: in vivo Serum Corticosteroid Induction Assay; parameters: species or system FVB/N mice; settings: for Percent reduction in serum corticosteroid: compared to unmodified mACTH(1–24), 1 μg s.c., blood one hour after administration
Procedure: An in vivo Serum Corticosteroid Induction Assay measures the level of corticosteroid or corticosterone in the blood stream of a subject. More specifically, the in vivo Serum Corticosteroid Induction Assay can include the following steps: first, an agent to suppress endogenous ACTH production was administered to a mouse subject, such as an intraperitoneal injection of dexamethasone; second, after waiting a suitable period of time for suppression of endogenous ACTH production (e.g., 1.5–2.0 hours), a test compound can be administered to the mouse by a suitable method, such as intraperitoneal or subcutaneous injection; and third, after waiting a suitable period of time (e.g., 1 hour) for action of the injected test compound, a blood sample can be taken from the subject and the level of serum corticosterone can be determined by a suitable method, such as a competitive radioimmunoassay using ^125I RIA kit (ICN, Costa Mesa, Calif.). Example 1 describes a murine in vivo Serum Corticosteroid Induction Assay in detail.
The corticosteroid or corticosterone secretion induced in vivo by an ACTH analog compound was compared to the level of corticosteroid secretion produced by an unmodified ACTH compound by measuring blood serum corticosteroid after administering either the ACTH or ACTH analog as test compounds. […] ACTH analog compositions with decreased function were identified by measuring corticosterone levels using standard radioimmunoassay (RIA) analysis on blood samples collected one hour after administering the mACTH(1–24) or ACTH analog compound to dexamethasone-suppressed mice. In FIG. 1, the potency of various ACTH analog peptides is expressed as per cent induction of corticosterone, with mouse ACTH being 100%. […] The percent of corticosterone induction 12 of ACTH analog Compounds in Samples 2–10 are shown as a percentage of the concentration of serum corticosterone 20 measured for unmodified mACTH(1–24) in the in vivo Serum Corticosteroid Adrenal Induction Assay. The structural modifications and measured percentage reduction in serum measured for Samples 2–10 in FIG. 1 are shown in Table 3 below.
The in vivo Serum Corticosteroid Induction Assay was performed according the following method. First, two to three month-old male FVB/N mice from our colony, five per group, were injected intraperitoneally with dexamethasone (0.4 mg/0.1 ml PBS per mouse; Sigma, St. Louis, Mo.) to suppress their endogenous ACTH production. See Hajos, G T et al., “Studies of the potency of polypeptides with ACTH action by a new method based on continuous measurement of plasma corticosterone,” Steroids Lipids Res 3:225–228 (1972), Costa, J L, et al., “Mutational analysis of evolutionarily conserved ACTH residues,” Gen Comp Endocrinol, 136:12–16 (2004), and Karpac, J, et al., “Development, Maintenance, and Function of the Adrenal Gland in Early Postnatal Pro-opiomelanocortin Null Mutant Mice,” Endocrinology (2005), published online ahead of print Feb. 24, 2005, all of which are incorporated herein by reference.
Second, ninety to one hundred twenty minutes later, the dexamethasone-suppressed mice were injected subcutaneously between the shoulder blades with either unmodified mACTH(1–24) or one of several ACTH analog peptide compounds (1 μg/0.1 mL PBS/0.5% BSA), or with vehicle alone (control) (0.1 mL PBS/0.5% BSA). The following ACTH analog peptide compounds were administered to separate mice: 1: murine ACTH1–24; 2: V26F,E30K; 3: P19W,K21E,Y23R; 4: E30K,P36R; 5: ALA19–24; 6: V26F,P36R; 7: P19W, K21E; 8: P19W,K21A,delY23; 9: P19W,K21A; 10: KRRP16-19RMW (AT814) (SEQ ID NO:20).
Third, one hour later, blood was collected within less than 1 minute from a small incision in the tail, and serum was flash-frozen and stored at −80° C. until assayed. Serum corticosterone was determined by competitive radioimmunoassay (^125I RIA kit; ICN, Costa Mesa, Calif.) according to the manufacturer's recommendations. One microliter of serum was used per assay sample. […]

[2] = test system: corticosterone production by explanted mouse adrenal halves; experiment: in vitro Serum-free Adrenal Inhibition Assay; format: cell-based; settings: in vivo by Example 1, in vitro by Example 4
Procedure: A series of separate in vitro Serum-Free Adrenal Corticosteroid Inhibition Assay were performed to identify ACTH analogs that inhibit ACTH-induced adrenal hormone production in vitro. The concentration of corticosterone was measured according to the procedure of Example 4 in a serum-free culture medium containing explanted adrenal membrane and unmodified ACTH, AT814 ACTH analog (SEQ ID NO:20), or a combination of ACTH and AT814 at 100 ng/mL each. […] Corticosterone levels were taken at 2.0 hours after the adrenal membrane was placed in the serum free M199 medium, and each corticosterone level in Table 5 is an average of five samples.
The in vitro Serum-free Adrenal Inhibition Assay was performed according the following method. First, adrenals were removed from mice, dissected free of fat, and cut in half. See Costa, J L, et al., “Mutational analysis of evolutionarily conserved ACTH residues,” Gen Comp Endocrinol. 136:12–16 (2004); and Weber, M M, et al., “Postnatal overexpression of insulin-like growth factor II in transgenic mice is associated with adrenocortical hyperplasia and enhanced steroidogenesis,” Endocrinology 140:1537–1543 (1999), incorporated herein by reference.
Second, each adrenal half was placed into an individual well of a 4-well dish, one dish per mouse. Adrenal halves were incubated at 5% CO2, 37° C., in 0.5 ml serum-free medium (M199; Invitrogen) for 30 minutes to equilibrate.
Third, medium was removed and replaced by 0.5 ml M199 containing ACTH, AT814, or both, at 100 ng/ml each; controls had no peptides added.
Fourth, after 2 hours of incubation, the medium was removed, pooled for all four halves from each mouse, and assayed by corticosterone using standard RIA methods. corticosterone was determined by competitive radioimmunoassay (^125I RIA kit; ICN, Costa Mesa, Calif.) according to the manufacturer's recommendations. One microliter of serum was used per assay sample. Samples were run in duplicates.

Substance: (E30K, P36R)mACTH (SYSMEHFRWGKPVGKKRRPVKVYPNVAENKSAEAFRLEF; Corticotropin; UniProt P01193 124-162, looked up, variant E30K P36R) [Sample 4]
- Percent reduction in serum corticosteroid [1]: 41.5%

Substance: (P19W, K21A)mACTH (SYSMEHFRWGKPVGKKRRWVAVYPNVAENESAEAFPLEF; Corticotropin; UniProt P01193 124-162, looked up, variant P19W K21A) [Sample 9]
- Percent reduction in serum corticosteroid [1]: 83.4%

Substance: (P19W, K21A, delY23)mACTH (SYSMEHFRWGKPVGKKRRWVAVPNVAENESAEAFPLEF; Corticotropin; UniProt P01193 124-162, looked up, variant P19W K21A Y23*) [Sample 8]
- Percent reduction in serum corticosteroid [1]: 76.0%

Substance: (P19W, K21E)mACTH (SYSMEHFRWGKPVGKKRRWVEVYPNVAENESAEAFPLEF; Corticotropin; UniProt P01193 124-162, looked up, variant P19W K21E) [Sample 7]
- Percent reduction in serum corticosteroid [1]: 61.1%

Substance: (P19W, K21E, Y23R)mACTH (SYSMEHFRWGKPVGKKRRWVEVRPNVAENESAEAFPLEF; Corticotropin; UniProt P01193 124-162, looked up, variant P19W K21E Y23R) [Sample 3]
- Percent reduction in serum corticosteroid [1]: 36.5%

Substance: (PVKVYP19-24AAAAA)mACTH [Sample 5]
- Percent reduction in serum corticosteroid [1]: 51%
- in vivo activity in excess of the in vitro activity of unmodified mACTH (FIG. 5) ([1]; method of Example 1): about 50%
- in vivo activity, % corticosterone induction relative to mACTH(1–24) (FIG. 5) ([1]; method of Example 1): greater relative to both mACTH and to other ACTH analogs
- in vitro activity compared with in vivo activity (FIG. 5) [2]: increased serum half life measured in vivo

Substance: (V26F, E30K)mACTH (SYSMEHFRWGKPVGKKRRPVKVYPNFAENKSAEAFPLEF; Corticotropin; UniProt P01193 124-162, looked up, variant V26F E30K) [Sample 2]
- Percent reduction in serum corticosteroid [1]: 18.3%

Substance: (V26F, P36R)mACTH (SYSMEHFRWGKPVGKKRRPVKVYPNFAENESAEAFRLEF; Corticotropin; UniProt P01193 124-162, looked up, variant V26F P36R) [Sample 6]
- Percent reduction in serum corticosteroid [1]: 59.3%
